Assay results taken from patent publication US20030170893A1, “NANOCAPSULE ENCAPSULATION SYSTEM AND METHOD” (Genesegues, Inc., priority 2000, published 2003).

Tests used:
[1] = system: squamous cell carcinoma cultures; experiment: Cell growth inhibition, MTT assay, carcinoma; format: cell-based, human; conditions: 18 hours treatment, 72 hours total growth time
Method: FIG. 6C: Carcinoma cells and HDF's were seeded overnight into 96 well plates at 2000 and 6000 cells per well respectively. Cisplatin preparations were added to wells for 18 hours as noted on the graph than washed out. After 72 hours cell viability of assessed by a commercial MTT assay (WST assay, Boehringer Mannheim). Wells were executed in duplicate.
Nanocapsules were prepared as described in Example 1 to encapsulate cisplatin, a […] molecule and a common cancer chemotherapeutic with serious side effects. A coating weight ratio of 1:100 was used and irregular nanocapsules of 29±3 nm were produced. […] Cells were seeded overnight into 96 well plates, treated for 18 hours with increasing amounts of encapsulated or unencapsulated drug, then assessed for cell growth inhibition using an MTT assay […] for total growth time of 72 hours. Results are illustrated in FIG. 6C.

[2] = system: human dermal fibroblast (HDF) cultures; experiment: Cell growth inhibition, MTT assay, fibroblasts; format: cell-based; conditions: 18 hours treatment, 72 hours total growth time
Method: Cells were seeded overnight into 96 well plates, treated for 18 hours with increasing amounts of encapsulated or unencapsulated drug, then assessed for cell growth inhibition using an MTT assay 48 hours later for total growth time of 72 hours.

## N.N.[Cl][Pt][Cl] [unencapsulated drug, cisplatin]
[1]
  inhibition concentration (IC50): 525 µg/mL
[2]
  Cell death of nontarget cells: killed
